Reference: patent US9133207B2, “Tetrandrine derivatives with substituted 5-carbon, preparation method and use thereof” (Hangzhou Bensheng Pharmaceutical Co., Ltd., priority 2011, dated 2015)
In brackets after ≈: the same amount, converted by molar mass.

Assays:
[1] = system: K562/adr (drug-resistant, chronic myeloid leukemia, CML); test: Leukemia cell growth inhibition, MTT, 72 h (Example 5); format: cell-based, human; details: for IC50 / IC90: Homo sapiens, K562/Adr, 72 h, MTT
Text: (§1) Leukemia cell lines: leukemia cell lines: K562/adr (drug-resistant, chronic myeloid leukemia, CML), NB4 (acute promyelocytic leukemia, AML), Kasumi-1 (acute myeloid leukemia M2 type, AML-M2), Jurkat (acute lymphoblastic leukemia, ALL), all of which are donated by Cancer Research Institute of Zhejiang University, China; and H9 (acute lymphoblastic leukemia, ALL), which is purchased from China Center for Type Culture Collection.
(§2) Reagents: The standard sample of tetrandrine (TTD) is purchased from Ci Yuan Biotechnology Co., Ltd., Shaanxi, China; and the 5-substituted tetrandrine derivatives of the present invention.
(§3) Obtaining 6000 well-growing leukemia cells and inoculating them into wells of a 96-well cell culture plate. The culture medium is a 1640 cell culture medium containing 10% fetal bovine serum. After adding the tetrandrine derivatives of different concentrations and mixing uniformly, placing the plate in a carbon dioxide cell incubator (5% CO2) at 37° C. and incubating for 72 hours. Then the viable cell concentration is determined by the MTT method.

[2] = system: H9 (acute lymphoblastic leukemia, ALL); test: as above; format: cell-based, human; details: Homo sapiens; 72 h, MTT
Text: as §1, §2, §3

[3] = system: Jurkat (acute lymphoblastic leukemia, ALL); test: as above; format: cell-based, human; details: Homo sapiens, Jurkat; 72 h, MTT
Text: as §1, §2, §3

[4] = system: Kasumi-1 (acute myeloid leukemia M2 type, AML-M2); test: as above; format: cell-based, human; details: Homo sapiens, Kasumi 1
Text: as §1, §2, §3

[5] = system: CaES-17 (esophageal cancer cell); test: Solid tumor cell growth inhibition, MTT, 72 h (Example 7); format: cell-based, human; details: Homo sapiens, CaEs17; 72 h, MTT, CAES-17
Experimental: (§4) Human solid tumor cell lines: Hep-2 (laryngeal carcinoma), A549 (human lung cancer), CaES-17 (esophageal cancer cell), PC-3 (prostate cancer), CNE (nasopharyngeal carcinoma cell) and SK-OV-3 (ovarian cancer cell), all of which are purchased from China Center For Type Culture Collection; RKO (human colon adenocarcinoma cell), MGC 803 (human gastric cancer cell), MG63 (osteosarcoma), and U87 MG (malignant glioma cell), all of which are purchased from Fuxiang Bio-tech Co. Ltd., Shanghai, China; PANC-1 (pancreatic cancer), Huh? (human liver cancer cell), Becap37 (human breast cancer cell), and Hela (human cervical cancer cell), all of which are donated by Cancer Research Institute of Zhejiang University, China.
(§5) Reagents: the same as in Example 5.
(§6) Obtaining 4000 well-growing human solid tumor cells and inoculating them into wells of a 96-well cell culture plate. The culture medium is DMEM High Glucose cell culture medium containing 10% fetal bovine serum. The plate is placed in a carbon dioxide cell incubator (5% CO2) at 37° C. and incubated for 24 hours. After been added with tetrandrine derivatives of different concentration and mixing uniformly, the plate is placed in a carbon dioxide cell incubator (5% CO2) at 37° C. and incubated for 72 hours. Then the viable cell concentration is determined by the MTT method and the cell viability (%) after drug treatment is calculated. In this experiment, the cell viability of control group (not treated with any compound) is set as 100%.

MG63 (osteosarcoma) = test: as above; format: cell-based, human; details: Homo sapiens; 72 h, MTT, MG-63
Experimental: as §4, §5, §6

PC-3 (prostate cancer) = test: as above; format: cell-based, human; details: Homo sapiens; 72 h, MTT, PC-3
Experimental: as §4, §5, §6

[6] = system: PANC-1 (pancreatic cancer); test: as above; format: cell-based, human; details: Homo sapiens; 72 h, MTT, PANC-1
Experimental: as §4, §5, §6

[7] = system: RPMI8226 (multiple myeloma); test: Multiple myeloma cell growth inhibition, MTT, 72 h (Example 6); format: cell-based, human; details: for IC50 / IC90: Homo sapiens, RPMI-8226, 72 h, MTT, RPMI8226
Experimental: Multiple myeloma and lymphoma cell lines: RPMI8226 (multiple myeloma), purchased from Fuxiang Bio-tech Co. Ltd., Shanghai, China.
as §5
Obtaining 6000 well-growing leukemia cells and inoculating them into wells of a 96-well cell culture plate. The culture medium is a 1640 cell culture medium containing 10% fetal bovine serum. After adding the tetrandrine derivatives of different concentrations and mixing uniformly, placing the plate in a carbon dioxide cell incubator (5% CO2) at 37° C. and incubated for 72 hours. Then the viable cell concentration is determined by the MTT method.

[8] = system: Becap37 (human breast cancer cell); test: Solid tumor cell growth inhibition, MTT, 72 h (Example 7); format: cell-based; details: Homo sapiens; 72 h, MTT, Becap-37
Experimental: as §4, §5, §6

[9] = system: RKO (human colon adenocarcinoma cell); test: as above; format: cell-based; details: Homo sapiens; 72 h, MTT, RKO
Experimental: as §4, §5, §6

[10] = system: MGC 803 (human gastric cancer cell); test: as above; format: cell-based; details: Homo sapiens
Experimental: as §4, §5, §6

A549 (human lung cancer) = test: as above; format: cell-based; details: Homo sapiens; 72 h, MTT, A549
Experimental: as §4, §5, §6

[11] = system: Huh7 (human liver cancer cell); test: as above; format: cell-based; details: Homo sapiens; 72 h, MTT, Huh-7
Experimental: as §4, §5, §6

[12] = system: NB4 (acute promyelocytic leukemia, AML); test: Leukemia cell growth inhibition, MTT, 72 h (Example 5); format: cell-based, human; details: Homo sapiens; 72 h, MTT
Text: as §1, §2, §3

SMILES	IC50 [1]	IC90 [1]	IC50 [2]	IC90 [2]	IC50 [3]	IC90 [3]	IC50 [4]	IC90 [4]	IC50 [5]	IC90 [5]	IC50 (MG63 (osteosarcoma))	IC90 (MG63 (osteosarcoma))	IC50 [6]	IC90 [6]	IC50 [7]	IC90 [7]	IC50 [8]	IC90 [8]	IC50 [10]	IC90 [10]	further results
COc1ccc2cc1Oc1ccc(cc1)C[C@H]1c3cc(c(OC)cc3CCN1C)Oc1c(OC)c(OC)c(COC(=O)c3ccc(N(C)C)cc3)c3c1[C@H](C2)N(C)CC3 [BS-TE-204]	1.47 µg/mL (≈ 1.84 µM)	14.5 µg/mL (≈ 18.1 µM)	2.88 µg/mL (≈ 3.6 µM)	5.84 µg/mL (≈ 7.3 µM)	2.66 µg/mL (≈ 3.33 µM)	9.06 µg/mL (≈ 11.3 µM)	2.32 µg/mL (≈ 2.9 µM)	7.5 µg/mL (≈ 9.38 µM)	6.81 µg/mL (≈ 8.51 µM)	16.6 µg/mL (≈ 20.8 µM)	1.72 µg/mL (≈ 2.15 µM)	4.69 µg/mL (≈ 5.86 µM)	6.47 µg/mL (≈ 8.09 µM)	11.1 µg/mL (≈ 13.9 µM)	0.47 µg/mL (≈ 0.588 µM)	1.92 µg/mL (≈ 2.4 µM)	3.66 µg/mL (≈ 4.58 µM)	6.19 µg/mL (≈ 7.74 µM)	2.57 µg/mL (≈ 3.21 µM)	9 µg/mL (≈ 11.3 µM)	IC50 (PC-3 (prostate cancer)): 6.55 µg/mL (≈ 8.19 µM); IC90 (PC-3 (prostate cancer)): 9 µg/mL (≈ 11.3 µM); IC50 [9]: 3.12 µg/mL (≈ 3.9 µM); IC90 [9]: 4.7 µg/mL (≈ 5.88 µM); IC50 (A549 (human lung cancer)): 3.12 µg/mL (≈ 3.9 µM); IC90 (A549 (human lung cancer)): 14.2 µg/mL (≈ 17.7 µM); IC50 [11]: 2.08 µg/mL (≈ 2.6 µM); IC90 [11]: 3.88 µg/mL (≈ 4.85 µM)
COc1ccc2cc1Oc1ccc(cc1)C[C@H]1c3cc(c(OC)cc3CCN1C)Oc1c(OC)c(OC)c(CN3CC=CC3)c3c1[C@H](C2)N(C)CC3 [BS-TE-329]	0.1 µg/mL (≈ 0.142 µM)	1.33 µg/mL (≈ 1.89 µM)	1.19 µg/mL (≈ 1.69 µM)	2 µg/mL (≈ 2.84 µM)	0.91 µg/mL (≈ 1.29 µM)	3.31 µg/mL (≈ 4.7 µM)	0.5 µg/mL (≈ 0.71 µM)	3.4 µg/mL (≈ 4.83 µM)	7.2 µg/mL (≈ 10.2 µM)	26.5 µg/mL (≈ 37.6 µM)	6.87 µg/mL (≈ 9.76 µM)	35.6 µg/mL (≈ 50.6 µM)	> 10 µg/mL	> 10 µg/mL	0.004 µg/mL (≈ 0.00568 µM)	0.29 µg/mL (≈ 0.412 µM)	1.62 µg/mL (≈ 2.3 µM)	2.48 µg/mL (≈ 3.52 µM)	1.26 µg/mL (≈ 1.79 µM)	1.82 µg/mL (≈ 2.59 µM)	anti-K562/adr activity increase over tetrandrine ([1]; compared with tetrandrine): ~4 fold; IC50 [12]: 2.05 µg/mL (≈ 2.91 µM); IC90 [12]: 3.9 µg/mL (≈ 5.54 µM); anti-RPMI8226 activity increase over tetrandrine ([7]; compared with tetrandrine): ~90 fold; IC50 (A549 (human lung cancer)): 2.36 µg/mL (≈ 3.35 µM); IC90 (A549 (human lung cancer)): 4.77 µg/mL (≈ 6.78 µM); IC50 [11]: 8.16 µg/mL (≈ 11.6 µM); IC90 [11]: 15.9 µg/mL (≈ 22.5 µM)
COc1ccc2cc1Oc1ccc(cc1)C[C@H]1c3cc(c(OC)cc3CCN1C)Oc1c(OC)c(OC)c(Cn3cccn3)c3c1[C@H](C2)N(C)CC3 [BS-TE-330]	0.56 µg/mL (≈ 0.797 µM)	2.83 µg/mL (≈ 4.03 µM)	2.03 µg/mL (≈ 2.89 µM)	4.03 µg/mL (≈ 5.73 µM)	2.37 µg/mL (≈ 3.37 µM)	5.51 µg/mL (≈ 7.84 µM)	1.45 µg/mL (≈ 2.06 µM)	6.95 µg/mL (≈ 9.89 µM)	2.4 µg/mL (≈ 3.41 µM)	7.94 µg/mL (≈ 11.3 µM)	1.96 µg/mL (≈ 2.79 µM)	4.38 µg/mL (≈ 6.23 µM)	6.17 µg/mL (≈ 8.78 µM)	9.8 µg/mL (≈ 13.9 µM)	0.18 µg/mL (≈ 0.256 µM)	1.22 µg/mL (≈ 1.74 µM)	6 µg/mL (≈ 8.54 µM)	12 µg/mL (≈ 17.1 µM)	1.61 µg/mL (≈ 2.29 µM)	6.48 µg/mL (≈ 9.22 µM)	IC50 (PC-3 (prostate cancer)): 3.68 µg/mL (≈ 5.24 µM); IC90 (PC-3 (prostate cancer)): 7.59 µg/mL (≈ 10.8 µM); IC50 [9]: 2.5 µg/mL (≈ 3.56 µM); IC90 [9]: 4.64 µg/mL (≈ 6.6 µM); IC50 (A549 (human lung cancer)): 5.44 µg/mL (≈ 7.74 µM); IC90 (A549 (human lung cancer)): 16 µg/mL (≈ 22.7 µM); IC50 [11]: 2.96 µg/mL (≈ 4.21 µM); IC90 [11]: 4.9 µg/mL (≈ 6.97 µM)
COc1ccc2cc1Oc1ccc(cc1)C[C@H]1c3cc(c(OC)cc3CCN1C)Oc1c(OC)c(OC)c(CNCc3ccccn3)c3c1[C@H](C2)N(C)CC3 [BS-TE-352]	0.63 µg/mL (≈ 0.848 µM)	3 µg/mL (≈ 4.04 µM)	1.31 µg/mL (≈ 1.76 µM)	4.5 µg/mL (≈ 6.06 µM)	1.38 µg/mL (≈ 1.86 µM)	4.74 µg/mL (≈ 6.38 µM)	1.1 µg/mL (≈ 1.48 µM)	4.84 µg/mL (≈ 6.51 µM)	3.06 µg/mL (≈ 4.12 µM)	9.92 µg/mL (≈ 13.4 µM)	1.26 µg/mL (≈ 1.7 µM)	4.35 µg/mL (≈ 5.86 µM)	5.79 µg/mL (≈ 7.79 µM)	9 µg/mL (≈ 12.1 µM)	0.09 µg/mL (≈ 0.121 µM)	0.76 µg/mL (≈ 1.02 µM)	1.4 µg/mL (≈ 1.88 µM)	4.85 µg/mL (≈ 6.53 µM)	4.38 µg/mL (≈ 5.9 µM)	> 10 µg/mL	IC50 [12]: 1.05 µg/mL (≈ 1.41 µM); IC90 [12]: 3.88 µg/mL (≈ 5.22 µM); IC50 (PC-3 (prostate cancer)): 4.53 µg/mL (≈ 6.1 µM); IC90 (PC-3 (prostate cancer)): 7.51 µg/mL (≈ 10.1 µM); IC50 (A549 (human lung cancer)): 1.35 µg/mL (≈ 1.82 µM); IC90 (A549 (human lung cancer)): 4.58 µg/mL (≈ 6.16 µM); IC50 [11]: 3.61 µg/mL (≈ 4.86 µM); IC90 [11]: 4.98 µg/mL (≈ 6.7 µM)
COCc1c2c3c(c(OC)c1OC)Oc1cc4c(cc1OC)CCN(C)[C@H]4Cc1ccc(cc1)Oc1cc(ccc1OC)C[C@@H]3N(C)CC2 [BS-TE-420]	0.82 µg/mL (≈ 1.23 µM)	3.85 µg/mL (≈ 5.77 µM)	4.4 µg/mL (≈ 6.6 µM)	7.68 µg/mL (≈ 11.5 µM)	5.21 µg/mL (≈ 7.81 µM)	16 µg/mL (≈ 24 µM)	2.16 µg/mL (≈ 3.24 µM)	9.83 µg/mL (≈ 14.7 µM)	4.72 µg/mL (≈ 7.08 µM)	18.9 µg/mL (≈ 28.4 µM)	2.72 µg/mL (≈ 4.08 µM)	9.89 µg/mL (≈ 14.8 µM)	> 10 µg/mL	> 10 µg/mL	0.29 µg/mL (≈ 0.435 µM)	2.25 µg/mL (≈ 3.37 µM)	5.6 µg/mL (≈ 8.4 µM)	11.5 µg/mL (≈ 17.2 µM)	5.01 µg/mL (≈ 7.51 µM)	7.56 µg/mL (≈ 11.3 µM)	IC50 (PC-3 (prostate cancer)): 5.68 µg/mL (≈ 8.52 µM); IC90 (PC-3 (prostate cancer)): 10.9 µg/mL (≈ 16.4 µM); IC50 (A549 (human lung cancer)): 4.41 µg/mL (≈ 6.61 µM); IC90 (A549 (human lung cancer)): 12.2 µg/mL (≈ 18.3 µM); IC50 [11]: 4.22 µg/mL (≈ 6.33 µM); IC90 [11]: 7.06 µg/mL (≈ 10.6 µM)
